Assay results reported in patent US6921774B2, “Compounds and their use as glycine transport inhibitors” (H. Lundbeck A/S, priority 2000, dated 2005).
Structures can show the parent of a compound that is named as a salt.

Each compound was assayed against T1, human GlyT-1b (Homo sapiens, UniProt P48067) (assay: [3H]-Glycine uptake in cells transfected with human GlyT-1b). Settings: 6 min pre-incubation, 10 nM 3H-glycine, 15 min, read-out: IC50 GlyT-1b (Inhibition of Glycine Transport by hGlyT-).
T1 construct: expressed in transfected cells
T1 sequence (P48067 1-652 isoform P48067-3): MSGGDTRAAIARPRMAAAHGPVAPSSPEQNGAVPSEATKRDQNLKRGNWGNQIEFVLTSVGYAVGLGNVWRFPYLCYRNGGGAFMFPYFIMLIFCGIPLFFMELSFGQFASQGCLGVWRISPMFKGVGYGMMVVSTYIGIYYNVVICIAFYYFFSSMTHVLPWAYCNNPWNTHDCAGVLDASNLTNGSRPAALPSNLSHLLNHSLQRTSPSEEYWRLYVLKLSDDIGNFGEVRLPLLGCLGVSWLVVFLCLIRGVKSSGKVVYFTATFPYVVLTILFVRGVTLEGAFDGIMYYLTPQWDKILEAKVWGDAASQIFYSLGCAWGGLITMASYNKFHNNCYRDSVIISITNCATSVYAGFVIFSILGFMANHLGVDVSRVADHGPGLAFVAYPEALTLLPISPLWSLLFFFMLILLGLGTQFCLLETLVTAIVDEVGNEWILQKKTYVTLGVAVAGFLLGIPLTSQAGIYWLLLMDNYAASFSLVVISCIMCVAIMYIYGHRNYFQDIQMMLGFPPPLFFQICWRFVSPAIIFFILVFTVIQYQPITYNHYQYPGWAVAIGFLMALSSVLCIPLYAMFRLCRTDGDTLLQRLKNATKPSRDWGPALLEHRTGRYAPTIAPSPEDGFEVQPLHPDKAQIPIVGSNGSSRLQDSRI
Type: cell-based
Description: The compounds of the invention were tested in a well-recognised and reliable test measuring glycine uptake:
Cells transfected with the human GlyT-1b were seeded in 96 well plates. Prior to the experiment the cells were washed twice in HBS (10 mM Hepes-tris (pH 7.4), 2.5 mM KCl, 1 mM CaCl2, 2.5 mM MgSO4,) and pre-incubated with test compound for 6 minutes. Afterwards, 10 nM ^3H-glycine was added to each well and the incubation was continued for 15 minutes. The cells were washed twice in HBS. Scintillation fluid was added and the Plates were counted on a Trilux (Wallac) scintillation counter.

Compound	IC50 [µM]
CN(CCCC1(c2ccc(Cl)cc2)OCc2c(Cl)cccc21)CC(=O)O (centres unmarked) [Compound 3k, N-{3-[4-chloro-1-(4-chlorophenyl)-1,3-dihydroisobenzofuran-1-yl]-1-propyl}-N-methylglycine hydrochloride.]	4.1
C[C@@H](C(=O)O)N(C)CCCC1(c2ccc(Cl)cc2)OCc2cc(Cl)ccc21 (some centres unmarked) [Compound 3l, N-{3-[5-chloro-1-(4-chlorophenyl)-1,3-dihydroisobenzofuran-1-yl]-1-propyl}-N-methylalanine hydrochloride]	5.5
N-[2-(3-methyl-1-phenyl-indan-1-yl)-ethyl]-amino}-N-methyl alanine [Compound 3ak]	2.2
Cc1ccc(C2(CCCN(C)CC(=O)O)OCc3ccc(Cl)cc32)cc1 (centres unmarked) [Compound 3n, N-{3-[6-chloro-1-(4-methylphenyl)-1,3-dihydroisobenzofuran-1-yl]-1-propyl}-N-methylglycine hydrochloride.]	9.6
C[C@@H](C(=O)O)N(C)CCCC1(c2ccc(Cl)cc2)CCc2cc(Cl)ccc21 (some centres unmarked) [Compound 3aa, N-{3-[5-Chloro-1-(4-chloro-phenyl)-indan-1-yl]-propyl}-N-methylalanine hydrochloride]	0.47
CN(CCCC1(c2ccc(Cl)cc2)OCc2ccc(Cl)cc21)CC(=O)O (centres unmarked) [Compound 3m, N-{3-[6-chloro-1-(4-chlorophenyl)-1,3-dihydroisobenzofuran-1-yl]-1-propyl}-N-methylglycine hydrochloride.]	7.2
CN(CCC1(c2ccc(Cl)cc2)OC(C)(C)c2ccccc21)CC(=O)O (centres unmarked) [Compound 3af, N-{2-[1-(4-Chloro-phenyl)-3,3-dimethyl-1,3-dihydro-isobenzofuran-1-yl]-ethyl}-N-methylglycine]	3.5
CN(CCCC1(c2ccc(Cl)cc2)OCc2cc(Br)ccc21)CC(=O)O (centres unmarked) [Compound 3ae, N-{3-[5-Bromo-1-(4-chlorophenyl)-1,3-dihydroisobenzofuran-1-yl]-1-propyl}-N-methylglycine]	4
N-{3-[1-(4-methylphenyl)-1,3-dihydroisobenzofuran-1-yl]-1-propyl}-N-methylglycine. hydrochloride [Compound 3f]	5.4
Cc1ccc(-c2ccc3c(c2)COC3(CCN(C)CC(=O)O)c2ccc(Cl)cc2)cc1 (centres unmarked) [Compound 3al, N-{3-[1-(4-Chloro-phenyl)-5-(4-methyl-phenyl)-1,3-dihydro-isobenzofuran-1-yl]-ethyl}-N-methyl-glycine]	2.2

More lines, now with the values ahead:

IC50 [µM]	Compound
0.95	CN(CCC1(c2ccc(Cl)cc2)OCc2cc(-c3cc(Cl)ccc3Cl)ccc21)CC(=O)O (centres unmarked) [Compound 4k, N-{3-[1-(4-Chloro-phenyl)-5-(2,5-dichloro-phenyl)-1,3-dihydro-isobenzofuran-1-yl]-ethyl}-N-methyl-glycine]
8.6	COc1ccc(C2(CCCN(C)CC(=O)O)OCc3cc(C#N)ccc32)cc1 (centres unmarked) [Compound 3v, N-{3-[5-cyano-1-(4-methoxyphenyl)-1,3-dihydroisobenzofuran-1-yl]-1-propyl}-N-methylglycine hydrochloride]
1.1	CN(CCCC1(c2ccc(Cl)cc2)CCc2cc(Cl)ccc21)CC(=O)O (centres unmarked) [Compound 3z, N-{3-[5-Chloro-1-(4-chloro-phenyl)-indan-1-yl]-propyl}-N-methylglycine hydrochloride]
5.7	Cc1cc(C2(CCCN(C)CC(=O)O)OCc3cc(C#N)ccc32)ccc1F (centres unmarked) [Compound 3t, N-{3-[5-cyano-1-(3-methyl-4-fluorophenyl)-1,3-dihydroisobenzofuran-1-yl]-1-propyl}-N-methylglycine hydrochloride.]
1.2	CN(CCC1(c2ccc(Cl)cc2)OCc2cc(-c3cccs3)ccc21)CC(=O)O (centres unmarked) [Compound 4c, N-{3-[1-(4-Chloro-phenyl)-5-(2-thiophenyl)-1,3-dihydro-isobenzofuran-1-yl]-ethyl}-N-methyl-glycine]
1.5	Cc1ccc(-c2ccc3c(c2)COC3(CCCN(C)CC(=O)O)c2ccc(Cl)cc2)cc1 (centres unmarked) [Compound 4d, N-{3-[1-(4-Chloro-phenyl)-5-(4-methyl-phenyl)-1,3-dihydro-isobenzofuran-1-yl]-propyl}-N-methyl-glycine]
0.71	Cc1ccccc1-c1ccc2c(c1)COC2(CCN(C)CC(=O)O)c1ccc(Cl)cc1 (centres unmarked) [Compound 4j, N-{3-[1-(4-Chloro-phenyl)-5-(2-methyl-phenyl)-1,3-dihydro-isobenzofuran-1-yl]-ethyl}-N-methyl-glycine]
